Consider 38 compounds from patent US9422240B2, “Partially saturated nitrogen-containing heterocyclic compound” (TAISHO PHARMACEUTICAL CO., LTD, priority 2012, dated 2016).

The target of experiment [1] is T1, human PHD2 (Homo sapiens (Human), UniProt Q9GZT9). Briefly: Test 1: human PHD2 inhibitory activity, [14C]-2-oxoglutarate to [14C]-succinic acid radiometric assay with HIF-1α peptide. It is filed as biochemical. To be noted: read-out: Percent inhibition (% at 1 μM). As for the experimental part:
(1) Expression and Preparation of Human PHD2
Human PHD2 was expressed in insect cells (HighFive cells). A registered sequence of human PHD2 (NM_022051) was introduced into the pFastBacl vector (Invitrogen), and the sequence was verified. The vector was introduced into Sf9 insect cells (Invitrogen) to acquire human PHD2 baculovirus. HighFive insect cells (Invitrogen) were infected with this recombinant virus and cultured at 27° C. for 72 hours; thereafter, a cell lysis solution containing various protease inhibitors was added and the cells were disrupted to form a suspension. The suspension of disrupted cells was centrifuged at 4° C. and 100,000×g for 30 minutes and the supernatant was recovered as a cell lysate.
(2) Measurement of Human PHD2 Inhibitory Activity
The activity of human PHD2 enzyme was measured with a substrate which is a 19-residue partial peptide based on the sequence of HIF-1α. Specifically, the conversion of 2-oxoglutarate to succinic acid which would occur simultaneously with the hydroxylation of a proline residue in the peptide with the PHD2 enzyme was utilized. To be more specific, [^14C]-2-oxogiutarate was added to the reaction system to initiate an enzymatic reaction and the [^14C]-2-oxoglutarate remaining after the reaction was bound to 2,4-dinitrophenylhydrazine (DNPH), with the resulting precipitate being removed by passage through a filter. Subsequently, radiation counting was conducted on the resulting [^14C]-succinic acid.
A test compound, HIF-1αpeptide and [^14C]-2-oxoglutarate were preliminarily added onto 96-well plates and reaction was initiated by adding a human PHD2 enzyme solution (4 μg/well). After 15-min incubation at 37° C., a DNPH-containing quench solution was added and the mixture was allowed to stand at room temperature for 30 minutes. Thereafter, an excess of non-radiolabelled 2-oxoglutarate was added and the mixture was allowed to stand at room temperature for 60 minutes. The resulting precipitate was removed by passage through a filter and the radiation count on the [^14C]-succinic acid was quantified (with MicroBeta). Radiation counting was conducted for each well and the human PHD2 inhibitory activity of each test compound was calculated on the basis of the values for the substrate-free group and the test compound-free group.

Experiment [2] addresses T1, human PHD2. Nature of the experiment: Test 2: human PHD2 inhibitory activity, fluorescence polarization assay of HIF-1α peptide proline hydroxylation. Type of experiment: biochemical. As to conditions: for inhibition at 1 µM: read-out: Percent inhibition (% at 1 μM); for IC50: human PHD2, fluorescence polarization assay, 20-min incubation at 30° C. A digest of the protocol:
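Enzyme from lysate of cells expressing human PHD2 (NM_022051), 40 ng/well, added to compound and 19-residue HIF-1α peptide substrate; 20 min at 30° C., EDTA quench. Prolyl hydroxylation detected by HIF-OH antibody binding via fluorescence polarization; inhibition relative to compound-free wells.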

Setting [3] is: test compound's concentration 1 μM, Test 1, [14C]-2-oxoglutarate radiometric assay.
The mark [4] stands for this setting: test compound's concentration 1 μM, Test 2, fluorescence polarization assay.

As usually defined, the inhibition is the change of the read-out against control, counted positive when it falls. What is called IC50 is the midpoint of a concentration-inhibition curve. Low readings indicate inhibition by little substance, high ones a need for much substance.

Structures can show the parent of a compound that is named as a salt.

T1 sequence (Q9GZT9 whole entry): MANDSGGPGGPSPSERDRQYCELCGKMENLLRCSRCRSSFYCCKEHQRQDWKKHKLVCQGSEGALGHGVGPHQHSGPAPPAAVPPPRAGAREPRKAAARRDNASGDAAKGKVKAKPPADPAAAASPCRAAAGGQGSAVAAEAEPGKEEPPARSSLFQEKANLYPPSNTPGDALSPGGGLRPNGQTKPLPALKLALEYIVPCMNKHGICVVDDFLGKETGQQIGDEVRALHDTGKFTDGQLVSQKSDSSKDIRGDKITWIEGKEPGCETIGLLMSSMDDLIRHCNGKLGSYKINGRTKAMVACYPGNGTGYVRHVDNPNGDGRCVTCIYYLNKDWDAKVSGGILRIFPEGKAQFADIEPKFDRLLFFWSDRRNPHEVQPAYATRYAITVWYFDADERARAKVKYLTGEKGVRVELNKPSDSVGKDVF

For the compound `O=C(O)CNC(=O)C1=C(O)CCN(Cc2ccc(C(F)(F)F)c(C3CC3)c2)C1=O` [Ex. 1-190], the inhibition at 1 µM at human PHD2 [1] (setting [3]) amounted to 84%; on human PHD2 [2] (setting [4]) it was 85%.
Regarding `O=C(O)CNC(=O)C1=C(O)C2(CCCC2)CN(Cc2ccc(-c3ccccc3)cc2)C1=O` [Ex. 1-13], the figures for the inhibition at 1 µM on human PHD2 [1] (setting [3]) and at human PHD2 [2] (setting [4]) were 64% and 81%, respectively.
`CC1CC(O)=C(C(=O)NCC(=O)O)C(=O)N1Cc1ccc(OC(F)(F)F)cc1` (stereo not drawn) [Ex. 1-149]: the inhibition at 1 µM at human PHD2 [1] (setting [3]) and at human PHD2 [2] (setting [4]) was 74% throughout.
As for `O=C(O)CNC(=O)C1=C(O)CCN(Cc2ccc(-c3ccc(Cl)cc3)cc2)C1=O` [Ex. 2-11], the inhibition at 1 µM on human PHD2 [1] (setting [3]) worked out at 93%; at human PHD2 [2] (setting [4]), 91%.
`O=C(O)CNC(=O)C1=C(O)CCN(Cc2ccc(Oc3ccc(F)cc3)cn2)C1=O` [Ex. 1-259]: the inhibition at 1 µM at human PHD2 [1] (setting [3]) amounted to 92%; on human PHD2 [2] (setting [4]), 91%. The compound further yielded an IC50 on human PHD2 [2] of 96 nM.
For `O=C(O)CNC(=O)C1=C(O)C2(CCC2)CN(CC2CCC(c3ccccc3)CC2)C1=O` (stereo not drawn) [Ex. 1-114], the inhibition at 1 µM amounted to 36% at human PHD2 [1] (setting [3]) and 83% at human PHD2 [2] (setting [4]).
`O=C(O)CNC(=O)C1=C(O)CCN(Cc2ccc(-c3ccc(F)cc3)cc2F)C1=O` [Ex. 1-126]: the inhibition at 1 µM at human PHD2 [1] (setting [3]) worked out at 97%; at human PHD2 [2] (setting [4]) it was 98%.
The corresponding values for `Cn1nc(-c2ccccc2)cc1CN1C(=O)C(C(=O)NCC(=O)O)=C(O)CC1(C)C` [Ex. 1-299] are 47% and 64%.
For `O=C(O)CNC(=O)C1=C(O)CCN(Cc2ccc(-c3ccsc3)cc2)C1=O` [Ex. 2-18], in that order: 98% and 91%.
The corresponding values for `CC1(C)CC(O)=C(C(=O)NCC(=O)O)C(=O)N1Cc1ccc(-c2ccccc2)cc1` [Ex. 1-17] are 84% and 85%.
Regarding `N#Cc1ccc(Oc2ccc(CN3CCC(O)=C(C(=O)NCC(=O)O)C3=O)cn2)cc1` [Ex. 1-225], the inhibition at 1 µM on human PHD2 [1] (setting [3]) came to 100%; at human PHD2 [2] (setting [4]), 98%. On human PHD2 [2], this compound registered an IC50 of 40 nM.
Consider `O=C(O)CNC(=O)C1=C(O)CCN(Cc2ccc(OCc3cccc(Cl)c3)cc2)C1=O` [Ex. 1-306], for which the inhibition at 1 µM on human PHD2 [1] (setting [3]) was 94%; at human PHD2 [2] (setting [4]), 99%.
The corresponding values for `O=C(O)CNC(=O)C1=C(O)CCN(Cc2ccc(C(F)(F)F)c(Cl)c2)C1=O` [Ex. 1-128] are 88% and 84%.
The corresponding values for `O=C(O)CNC(=O)C1=C(O)CCN(Cc2cnc(-c3ccccc3)s2)C1=O` [Ex. 1-44] are 87% and 91%.
For `CCC(c1ccc(C(F)(F)F)cc1)N1CCC(O)=C(C(=O)NCC(=O)O)C1=O` (stereo not drawn) [Ex. 1-153], in that order: 64% and 63%.
On to `CSc1ccc(CN2CCC(O)=C(C(=O)NCC(=O)O)C2=O)cc1` [Ex. 1-65], for which the results for the inhibition at 1 µM at human PHD2 [1] (setting [3]) and on human PHD2 [2] (setting [4]) were 84% and 85%, respectively.
The corresponding values for `COc1ccc(CN2C(=O)C(C(=O)NCC(=O)O)=C(O)CC2(C)C)c(F)c1` [Ex. 1-193] are 67% and 57%.
For `O=C(O)CNC(=O)C1=C(O)CC2(CC2)N(Cc2ccc(C(F)(F)F)cc2)C1=O` [Ex. 1-224], in that order: 80% and 90%.
As for `O=C(O)CNC(=O)C1=C(O)CCN(c2ccccc2)C1=O` [Ex. 1-38], the inhibition at 1 µM on human PHD2 [1] (setting [3]) is 48%; on human PHD2 [2] (setting [4]), 66%.
For `CC1(C)CC(O)=C(C(=O)NCC(=O)O)C(=O)N1Cc1ccc(OC(F)(F)F)cc1` [Ex. 1-151], in that order: 57% and 63%.
For `O=C(O)CNC(=O)C1=C(O)CCN(Cc2ccc(OC3CCCC3)cc2)C1=O` [Ex. 1-271], in that order: 91% and 91%.
For the compound `CC(C)(c1ccc(C(F)(F)F)cc1)N1CCC(O)=C(C(=O)NCC(=O)O)C1=O` [Ex. 1-231], the inhibition at 1 µM at human PHD2 [1] (setting [3]) was 65%; at human PHD2 [2] (setting [4]) it was 44%.
For the compound `O=C(O)CNC(=O)C1=C(O)CCN(Cc2ccc(CCC3CC3)cc2)C1=O` [Ex. 1-249], the results for the inhibition at 1 µM on human PHD2 [1] (setting [3]) and at human PHD2 [2] (setting [4]) were 103% and 94%, respectively.
For `CC1CC(O)=C(C(=O)NCC(=O)O)C(=O)N1C1(c2ccc(C(F)(F)F)cc2)CC1` (stereo not drawn) [Ex. 1-210], in that order: 59% and 42%.
Consider `CC1(C)CC(O)=C(C(=O)NCC(=O)O)C(=O)N1Cc1ccc(C(F)(F)F)cc1` [Ex. 1-85], for which the inhibition at 1 µM amounted to 61% at human PHD2 [1] (setting [3]) and 65% on human PHD2 [2] (setting [4]).
Turning to `O=C(O)CNC(=O)C1=C(O)CCN(Cc2ccc(C3CC3)cc2)C1=O` [Ex. 3-2, N-{[1-(4-Cyclopropylbenzyl)-4-hydroxy-2-oxo-1,2,5,6-tetrahydropyridin-3-yl]carbonyl}glycine sodium salt], the inhibition at 1 µM on human PHD2 [1] was 87%; at human PHD2 [2] it was 90%.
For `O=C(O)CNC(=O)C1=C(O)CCN(Cc2ccc(OC3CCC3)cc2)C1=O` [Ex. 1-262], the inhibition at 1 µM at human PHD2 [1] (setting [3]) is 88%; at human PHD2 [2] (setting [4]), 87%.
Turning to `O=C(O)CNC(=O)C1=C(O)CCN(Cc2ccc(-c3ccccc3)cc2F)C1=O` [Ex. 1-127], the inhibition at 1 µM on human PHD2 [1] (setting [3]) stood at 92%; on human PHD2 [2] (setting [4]) it was 95%.
For `O=C(O)CNC(=O)C1=C(O)CC(CCc2ccccc2)N(Cc2ccc(C(F)(F)F)cc2)C1=O` (stereo not drawn) [Ex. 1-185], in that order: 69% and 81%.
With `O=C(O)CNC(=O)C1=C(O)CCN(Cc2ccc(-c3ccc(Cl)c(Cl)c3)cc2)C1=O` [Ex. 2-23], the inhibition at 1 µM at human PHD2 [1] (setting [3]) came out at 88%; at human PHD2 [2] (setting [4]), 96%.
Turning to `O=C(O)CNC(=O)C1=C(O)CCN(Cc2ccc(Oc3ccccc3F)nc2)C1=O` [Ex. 1-274], the inhibition at 1 µM at human PHD2 [1] (setting [3]) was 92%; on human PHD2 [2] (setting [4]), 94%. The compound further registered a half-inhibitory concentration (IC50) on human PHD2 [2] of 108 nM.
For the compound `O=C(O)CNC(=O)C1=C(O)CCN(Cc2ccc(C(F)(F)C(F)(F)F)cc2)C1=O` [Ex. 1-140], the inhibition at 1 µM on human PHD2 [1] (setting [3]) was determined as 79%; on human PHD2 [2] (setting [4]), 85%.
As to `Cc1ccc(Oc2ccc(CN3CCC(O)=C(C(=O)NCC(=O)O)C3=O)cc2)nc1` [Ex. 1-297], the inhibition at 1 µM on human PHD2 [1] (setting [3]) was determined as 86%; at human PHD2 [2] (setting [4]) it was 94%. This compound returned a 50% inhibitory concentration (IC50) at human PHD2 [2] of 89 nM.
With `Cc1c(CN2CCC(O)=C(C(=O)NCC(=O)O)C2=O)cnn1-c1ccccc1` [Ex. 1-268], the inhibition at 1 µM at human PHD2 [1] (setting [3]) turned out to be 78%; at human PHD2 [2] (setting [4]) it was 85%.
The corresponding values for `CCc1ccc(CN2CCC(O)=C(C(=O)NCC(=O)O)C2=O)cc1` [Ex. 1-53] are 78% and 78%.
The corresponding values for `O=C(O)CNC(=O)C1=C(O)CC2(CCOCC2)N(Cc2ccc(-c3ccccc3)cc2)C1=O` [Ex. 1-10] are 93% and 92%.
Consider `O=C(O)CNC(=O)C1=C(O)C2(CC2)CN(Cc2ccc(C3CC3)cc2)C1=O` [Ex. 1-214], for which the inhibition at 1 µM on human PHD2 [1] (setting [3]) stood at 89%; on human PHD2 [2] (setting [4]), 90%.
`O=C(O)CNC(=O)C1=C(O)CCN(Cc2ccc(Oc3ccc(C(F)(F)F)cn3)cc2)C1=O` [Ex. 1-298]: the inhibition at 1 µM at human PHD2 [1] (setting [3]) stood at 84%; on human PHD2 [2] (setting [4]), 94%. In addition, the concentration for half-maximal inhibition (IC50) at human PHD2 [2] turned out to be 79 nM.
